Experimental data reported in ChEMBL document CHEMBL1201862, “PubChem BioAssay data set” (2004).
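Following 48 hours of exposure in 96-well plates, responses at five concentrations were used to interpolate endpoints linearly. GI50: concentration for 50% inhibition of growth.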 Activity calls are given as the source filed them. No stated cut-off is given here; in the data, active = GI50 up to about 1.1 µM and inactive = higher.

What was measured:
Test in all cases: NCI anticancer screen, dose series, 48 h
ACHN = test system: ACHN
CAKI-1 = test system: CAKI-1
COLO 205 = test system: COLO 205
DLD-1 = test system: DLD-1
DMS-273 = test system: DMS-273
EKVX = test system: EKVX
HCT-15 = test system: HCT-15
HL-60 = test system: HL-60
HT-29 = test system: HT-29
K562 = test system: K562
NCI-H226 = test system: NCI-H226
SK-MEL-28 = test system: SK-MEL-28
SNB-19 = test system: SNB-19
U-251 = test system: U-251
XF498 = test system: XF498
KM12 = test system: KM12
NCI/ADR-RES = test system: NCI/ADR-RES
OVCAR-4 = test system: OVCAR-4
SK-MEL-5 = test system: SK-MEL-5
UACC-62 = test system: UACC-62

Structure (SMILES) | GI50 (ACHN) | GI50 (CAKI-1) | GI50 (COLO 205) | GI50 (DLD-1) | GI50 (DMS-273) | GI50 (EKVX) | GI50 (HCT-15) [µM] | GI50 (HL-60) | GI50 (HT-29) | GI50 (K562) | GI50 (NCI-H226) | GI50 (SK-MEL-28) | GI50 (SNB-19) | GI50 (U-251) | GI50 (XF498) | GI50 (KM12) | GI50 (NCI/ADR-RES) | GI50 (OVCAR-4) | GI50 (SK-MEL-5) | GI50 (UACC-62)
CC(C)=CCC/C(C)=C/C=C/C(C)=C/C1C[C@@]2(C(O)O1)[C@H](CCCO)/C(=C(/C)C=O)CC[C@]2(C)O (stereo not given in full) | 11.6 µM (inactive) | 11.6 µM (inactive) | 1.08 µM (active) | 16.4 µM (inactive) | 1.39 µM (inactive) | 11.9 µM (inactive) | 16.3 | 11.1 µM (inactive) | 16.4 µM (inactive) | 8.89 µM (inactive) | 22.4 µM (inactive) | 15.9 µM (inactive) | 19.1 µM (inactive) | > 10 µM (inactive) | 18.3 µM (inactive) |  |  |  |  | 
O=C1CCC23CC(C=CC=C12)n1c(=O)n(-c2ccccc2)c(=O)n13 (stereo not given) |  | > 50.6 µM (inactive) | > 100 µM (inactive) | 66.2 µM (inactive) | 71.4 µM (inactive) | > 100 µM (inactive) | > 78.7 | 31 µM (inactive) | > 88.9 µM (inactive) | 39.8 µM (inactive) | > 63.4 µM (inactive) | > 69.2 µM (inactive) | > 100 µM (inactive) |  | > 100 µM (inactive) | > 100 µM (inactive) | 38.5 µM (inactive) | > 100 µM (inactive) | > 87.3 µM (inactive) | > 100 µM (inactive)
O=c1cccccc1NCCCCCCCCNc1cccccc1=O | 3.33 µM (inactive) | > 100 µM (inactive) | > 100 µM (inactive) | > 100 µM (inactive) | 55.7 µM (inactive) | 24.9 µM (inactive) | > 100 | 3.53 µM (inactive) | > 100 µM (inactive) | 7.06 µM (inactive) | > 100 µM (inactive) |  | 38.1 µM (inactive) | > 100 µM (inactive) | 23 µM (inactive) | > 100 µM (inactive) |  |  |  | > 100 µM (inactive)
N=S(=O)(c1ccccc1)c1ccccc1[N+](=O)[O-] (stereo not given) | > 100 µM (inactive) | > 100 µM (inactive) | > 100 µM (inactive) | > 100 µM (inactive) | > 100 µM (inactive) | > 100 µM (inactive) | > 100 | > 100 µM (inactive) | > 100 µM (inactive) | > 100 µM (inactive) | > 100 µM (inactive) |  | > 100 µM (inactive) | > 100 µM (inactive) | > 100 µM (inactive) | > 100 µM (inactive) |  | > 100 µM (inactive) | > 100 µM (inactive) | > 100 µM (inactive)
COc1ccc(-c2nc3ccc([N+](=O)[O-])cc3c(=O)[nH]2)cc1 |  | 28.8 µM (inactive) | > 100 µM (inactive) | 88.3 µM (inactive) | 48.4 µM (inactive) | 66.1 µM (inactive) | > 100 | > 100 µM (inactive) | > 100 µM (inactive) | > 100 µM (inactive) | 23.2 µM (inactive) | > 100 µM (inactive) | 20.4 µM (inactive) | 24.6 µM (inactive) | 22.7 µM (inactive) | > 100 µM (inactive) | 34 µM (inactive) | 12.9 µM (inactive) | > 100 µM (inactive) | 37.7 µM (inactive)
CCOC(=O)N1C=NC23C(c4ccccc4)C(c4ccccc4)C12C(=O)N(C)C(=O)N3C (stereo not given) | > 100 µM (inactive) | > 100 µM (inactive) | > 100 µM (inactive) | > 100 µM (inactive) | > 100 µM (inactive) | > 100 µM (inactive) | > 100 | 56.1 µM (inactive) | > 100 µM (inactive) | > 100 µM (inactive) |  | > 100 µM (inactive) | > 100 µM (inactive) | > 100 µM (inactive) | > 100 µM (inactive) | > 100 µM (inactive) |  | > 100 µM (inactive) | > 100 µM (inactive) | > 100 µM (inactive)
O=C(CC1(O)C(=O)Nc2c(Cl)cc(Cl)cc21)c1ccc([N+](=O)[O-])cc1 (stereo not given) | 38.6 µM (inactive) | > 53.8 µM (inactive) | > 58.5 µM (inactive) | > 43.4 µM (inactive) | > 62.4 µM (inactive) | 43.4 µM (inactive) | > 55.3 | 7.89 µM (inactive) | > 58.9 µM (inactive) | 43.4 µM (inactive) | 30.6 µM (inactive) | > 44 µM (inactive) | > 100 µM (inactive) | 31.7 µM (inactive) | 56.5 µM (inactive) | > 54.8 µM (inactive) |  | 17.5 µM (inactive) | 22.8 µM (inactive) | 28.1 µM (inactive)
CCC(/C=C/c1ccccc1)=N\N=C(\C=C\c1ccccc1)CC | > 100 µM (inactive) |  | > 100 µM (inactive) | > 100 µM (inactive) | > 100 µM (inactive) | > 100 µM (inactive) | > 100 | > 100 µM (inactive) | > 100 µM (inactive) | > 100 µM (inactive) | > 100 µM (inactive) | > 100 µM (inactive) | > 100 µM (inactive) | > 100 µM (inactive) | > 100 µM (inactive) | > 100 µM (inactive) |  | > 100 µM (inactive) | > 100 µM (inactive) | > 100 µM (inactive)
N#C[C@H](OC1OC(COC2OC(CO)C(O)C(O)C2O)C(O)C(O)C1O)c1ccccc1 (stereo not given in full) |  | > 250 µM (inactive) | > 250 µM (inactive) | > 250 µM (inactive) | > 250 µM (inactive) | > 250 µM (inactive) | > 250 | 158 µM (inactive) | > 250 µM (inactive) | > 250 µM (inactive) | 191 µM (inactive) | > 250 µM (inactive) | > 250 µM (inactive) | > 250 µM (inactive) | 23.4 µM (inactive) | > 250 µM (inactive) | > 250 µM (inactive) | > 250 µM (inactive) | > 250 µM (inactive) | 247 µM (inactive)
